Square brackets hold non-standard residues; d marks the D form. Peptide text beside a SMILES is read from it. Ala(1H-tetrazol-5-yl) = N[C@@H](Cc1nnn[nH]1)C(=O)O
How the values were obtained:
[1] = system: rat trigeminal nerve cells; experiment: Axon elongation effect on cultured rat trigeminal nerve cells; assay type: cell-based; details: 1 μM peptide, 24 hours; N=8; Dunnett's test vs control P<0.001; FIG. 5
Experimental: Rats (Sic: Sprague-Dawley, 17-day-old, including female and male) purchased from Japan SLC, Inc. were euthanized by carbon dioxide gas inhalation and the trigeminal ganglion was harvested. The harvested trigeminal ganglion was washed with Hanks' balanced salt solution (HBSS) and then treated with collagenase A (Roche) for 30 minutes at 37° C. A neuron dispersion (Wako) was then used according to protocol for dispersion of the cells. Debris removal solution (Miltenyi biotec) and Myelin removal beads II (Miltenyi biotec) were used according to protocol to remove the debris and myelin. After suspending the isolated trigeminal nerve cells in culture solution, they were seeded onto a polylysine/laminin-coated 8-well chamber slide (Corning) at 2.5×10^3 cells/well. The culture solution used was Neurobasal-A containing B27 supplement (final concentration: 2%) and GlutaMAX (final concentration: 2 mM) and penicillin/streptomycin (final concentration: 1%). The culturing conditions were a carbon dioxide concentration of 5%, an air concentration of 95%, a humidity of 100% and a temperature of 37° C. […] The control was replaced with peptide-free culture solution. Culture medium replacement was followed by further culturing for 24 hours.
The culture medium was replaced with peptide-containing culture solution, and the rat trigeminal nerve cells cultured for 24 hours were immersed in a 2% paraformaldehyde solution at room temperature for 20 minutes for fixing. The cells were washed with PBS, and then 2% bovine serum albumin containing 0.1% TritonX-100 was added and reaction was conducted for 30 minutes. After washing with PBS, it was reacted with phospho-neurofilament H antibody (Merck, MAB1592-C) specifically recognizing neurofilaments forming the neuron bodies and neurites, for 1 hour at room temperature. After reaction for 1 hour, a fluorescent-labeled secondary antibody (Invitrogen Corp., #A-11031) was reacted at room temperature for 1 hour for fluorescent staining of the sample, and the stained cells were observed under a fluorescent microscope. The stained cell image was captured as an image from the fluorescent microscope and loaded into a computer.
In order to evaluate the extent of neurite formation by the rat trigeminal nerve cells, cells with neurites having lengths of at least twice the cell body diameter in the stained cell image in the computer were counted as neurite-forming cells, and the percentage (%) of this number of cells over the total cell count was calculated (Otori Y. Wei J Y, Barnstable C J. Invest. Ophthalmol Vis Sci (1998) 39, 972-981). The significant difference with respect to the control was determined by Dunnett's test (P<0.001).

[2] = system: neurotrophic keratitis rat model; experiment: Corneal nerve staining, nerve density in neurotrophic keratitis rat model; assay type: in vivo; details: 0.1% eye drops, capsaicin-treated rats; method and result in present tense
Experimental: (§1) A rat model was prepared, by subcutaneous administration of capsaicin in the dorsal region of rats, which elicited corneal nerve injury and attenuated corneal sensation while also leading to decreased lacrimal fluid volume and superficial punctate keratitis (SPK) (NPL 3: Investigative Ophthalmology & Visual Science (2012), vol. 53, No. 13, p. 8280-8287). The rats were given PACAP27 and its stabilized peptide eye drops, and the inhibiting effect on corneal damage was examined. The specific experiment method was as follows.
(§2) Capsaicin (product of Sigma) was dissolved in PBS containing 10% EtOH and 10% Tween80, and subcutaneously administered to the dorsal region of 4-day-old male Wistar/ST rats at a dose of 50 mg/kg·b·w.
The base was prepared by dissolving 0.3 g of trishydroxymethylaminomethane (Nacalai Tesque, Inc.) and 4.4 g of D(−)-mannitol (Nacalai Tesque, Inc.) in 100 mL of sterilized water, adding 1 N·HCl and adjusting the pH to 7. […] Each eye drops was stored at room temperature. […]
After euthanizing rats, the eye bulbs are extracted and immersed in Zamboni solution (product of Wako Pure Chemical Industries, Ltd.), and allowed to stand for 15 minutes at room temperature. […] The nerve density of the swirl structure in the nerve layer is quantified by conducting Sholl analysis using image analysis software (Image J).

[3] = system: neurotrophic keratitis rat model; experiment: Superficial punctate keratitis (SPK) score in neurotrophic keratitis rat model; assay type: in vivo; details: 0.1% eye drops 3 times daily, evaluated 2 weeks after start of eye dropping; FIG. 4
Experimental: as §1
Capsaicin (product of Sigma) was dissolved in PBS containing 10% EtOH and 10% Tween80, and subcutaneously administered to the dorsal region of 4-day-old male Wistar/ST rats at a dose of 50 mg/kg·b·w. […]
SPK was evaluated 2 weeks after the start of eye dropping. […] The eye surface was then observed with a slit lamp microscope, and the degree of corneal damage was evaluated by the method of Murakami et al., Atarashii Ganka 21 (1):87-90 (2004). Specifically, the cornea was divided into 3 regions, the top, center and bottom, and a score was assigned to each region on the following scale, with the value of the total of the scores of the 3 regions being recorded as the SPK score. <Scale> 0: No punctate stains, 1: Sparse (separated punctate fluorescein stains), 2: Intermediate (between 1 and 3), 3: Dense (almost all punctate fluorescein stains adjacent).

[4] = system: neurotrophic keratitis rat model; experiment: Corneal sensation (Cochet-Bonnet) in neurotrophic keratitis rat model; assay type: in vivo; details: 0.1% eye drops, capsaicin-treated rats; method and result in present tense
Experimental: as §1, §2
The base was prepared by dissolving 0.3 g of trishydroxymethylaminomethane (Nacalai Tesque, Inc.) and 4.4 g of D(−)-mannitol (Nacalai Tesque, Inc.) in 100 mL of sterilized water, adding 1 N·HCl and adjusting the pH to 7. […] Each eye drops was stored at room temperature. Each eye drop was initially administered 3 weeks after administration of capsaicin, 3 times every day, in an amount of 10 μL for each eye.
Corneal sensation is measured using a Cochet-Bonnet corneal sensory meter (Handaya Shoten). […] This procedure is repeated 3 times, and the average value for the obtained filament lengths is recorded as the corneal sensation threshold (CST) for that individual.

Row | SMILES | axon elongation (percentage of neurite-forming cells) [1] | corneal nerve density (Sholl analysis) [2] | SPK score [3] | corneal sensation threshold (CST) [4]
1 | CC[C@H](C)[C@H](NC(=O)CNC(=O)[C@H](CC(=O)O)NC(=O)[C@H](CO)NC(=O)[C@@H](N)Cc1cnc[nH]1)C(=O)N[C@@H](Cc1ccccc1)C(=O)N[C@H](C(=O)N[C@@H](CC(=O)O)C(=O)N[C@@H](CO)C(=O)N[C@@H](Cc1ccc(O)cc1)C(=O)N[C@@H](CO)C(=O)N[C@@H](CCCNC(=N)N)C(=O)N[C@@H](Cc1ccc(O)cc1)C(=O)N[C@@H](CCCNC(=N)N)C(=O)N[C@@H](CCCCN)C(=O)N[C@@H](CCC(N)=O)C(=O)N[C@@H](CCSC)C(=O)N[C@@H](C)C(=O)N[C@H](C(=O)N[C@@H](CCCCN)C(=O)N[C@@H](CCCCN)C(=O)N[C@@H](Cc1ccc(O)cc1)C(=O)N[C@@H](CC(C)C)C(=O)N[C@@H](C)C(=O)N[C@@H](C)C(=O)N[C@H](C(=O)N[C@@H](CC(C)C)C(N)=O)C(C)C)C(C)C)[C@@H](C)O [Peptide 1, reference compound] | exhibited axon elongation-promoting effects | improves reduction in nerve density | improved the increased SPK score | improves reduction in corneal sensation
2 | CC[C@H](C)[C@H](NC(=O)CNC(=O)[C@H](Cc1nnn[nH]1)NC(=O)[C@H](CO)NC(=O)[C@H](Cc1c[nH]cn1)NC(C)=O)C(=O)N[C@@H](Cc1ccccc1)C(=O)N[C@H](C(=O)N[C@@H](Cc1nnn[nH]1)C(=O)N[C@@H](CO)C(=O)N[C@@H](Cc1ccc(O)cc1)C(=O)N[C@@H](CO)C(=O)N[C@@H](CCCNC(=N)N)C(=O)N[C@@H](Cc1ccc(O)cc1)C(=O)N[C@@H](CCCNC(=N)N)C(=O)N[C@@H](CCCCN)C(=O)N[C@@H](CCC(N)=O)C(=O)N[C@@H](CC(C)C)C(=O)N[C@@H](C)C(=O)N[C@H](C(=O)N[C@@H](CCCCN)C(=O)N[C@@H](CCCCN)C(=O)N[C@@H](Cc1ccc(O)cc1)C(=O)N[C@@H](CC(C)C)C(=O)N[C@@H](C)C(=O)N[C@@H](C)C(=O)N[C@H](C(=O)N[C@@H](CC(C)C)C(N)=O)C(C)C)C(C)C)[C@@H](C)O [Peptide 9] (Ac-HS[Ala(1H-tetrazol-5-yl)]GIFT[Ala(1H-tetrazol-5-yl)]SYSRYRKQLAVKKYLAAVL-NH2) | exhibited axon elongation-promoting effects | improves reduction in nerve density | improved the increased SPK score | improves reduction in corneal sensation
